Reference: patent US6878522B2, “Methods for the identification of compounds useful for the treatment of disease states mediated by prostaglandin D2” (priority 2000, dated 2005)

Test system: human basophils
Test: Chemotaxis of human basophils
Assay type: cell-based
Experimental: The chemotactic response of human T lymphocytes to PGD2, murine MDC and murine mSDF was also assayed. Chemotaxis was determined using a 48-well Boyden chamber (Neuroprobe, Cabin John, Md.), and 3.0 μm polycarbonate filters. Cells were resuspended (3-3.5×10^6 cells/ml) in RPMI 1640 supplemented with 10 mM HEPES and 1 mg/ml bovine serum albumin (Sigma, St. Louis, Mo.), and placed into the upper wells of the chamber. The compound to be tested was placed in the lower wells. The chambers were incubated for 90-120 minutes at 37° C. in a humidified CO2 incubator. At the end of the incubation period, the number of migrating cells on the filter (expressed per high power field) were enumerated microscopically. […] In FIG. 4, the chemotactic response of human basophils to PGD2 and C5a is shown.

CCCCC[C@H](O)/C=C/[C@H]1C(=O)C[C@H](O)[C@@H]1C/C=C\CCCC(=O)O [PGD2, prostaglandin D2]
chemotactic response of human basophils: responsive to PGD2
